Data set [1] deals with SW480 colon carcinoma cells. In words: Cell viability assay (CellTiter-Glo) in SW480 cells. The conditions noted are these: Homo sapiens; for EC50: 96 h, SW480 cell viability, four days, CellTiter-Glo. The class given is cell-based. As to the method:
Representative compounds were screened using the assay procedure to assess the effect on cell viability as described below.
SW480 colon carcinoma cells were transduced with a lentiviral vector expressing luciferase with a human Sp5 promoter consisting of a sequence of eight TCF/LEF binding sites. SW480 cells stably expressing the Sp5-Luc reporter gene and a hygromycin resistance gene were selected by treatment with 150 μg/mL of hygromycin for 7 days. These stably transduced SW480 cells were expanded in cell culture and used for all further screening activities.
For the Cell Viability Assays, the cells were plated at 2,000 cells/well in 384-well plates with a DMEM medium containing 1% fetal bovine serum, and 1% Penicillin-Streptomycin and incubated for […] at 37° C. and 5% CO2. Eight replicates of DMSO-treated cells served as controls and cells treated with compound were performed in duplicate.
After incubation, 10 μL of CellTiter-Glo (Promega) was added to each well allowed to incubate for approximately 12 minutes. This reagent “results in cell lysis and generation of a luminescent signal proportional to the amount of ATP present. The amount of ATP is directly proportional to the number of cells present in culture, in agreement with previous reports. The CellTiter-Glo Assay generates a “glow-type” luminescent signal, produced by the luciferase reaction (Promega.com)”.

Data set [2] deals with primary human mesenchymal stem cells (hMSCs). The experiment in a line: Chondrogenesis induction in hMSCs (nodule count, relative to TGF-β3). The class given is cell-based. The conditions noted are these: 6 days; for Conc (nM) of 50% TGF-β3 activity / Max. Activity as % TGF-β3 activity: TGF-β3 10 ng/mL positive control; for Conc (nM) of Max. activity: chondrogenic nodules. An excerpt:
Representative compounds were screened using primary human mesenchymal stem cells (hMSCs) to determine their ability to induce chondrogenesis (process by which cartilage is developed).
Human Mesenchymal Stem Cell Culture: Primary human mesenchymal stem cells (hMSCs) were purchased from Lonza (Walkersville, Md.) and expanded in Mesenchymal Stem Cell Growth Media (Lonza). Cells between passage 3 and 6 were used for the experiments.
Number of nodules in each well was normalized to the average of 3 DMSO treated wells on the same plate using Excel (Microsoft Inc.). The normalized averages (fold change over DMSO) of 3 replicate wells for each compound concentration were calculated. Due to solubility limitations of some of the compounds, curve fitting was incomplete leading to inaccurate EC50 determinations.
Using TGF-β3 as a positive control, the concentration of representative compounds required to induce equivalent levels of chondrogenesis is reported. In addition, the maximum activity of each compound and the respective dose that each compound reached maximum chondrogenesis activity is reported.

Data set [3] deals with IL-6. The experiment in a line: IL-6 inhibition in LPS-stimulated human PBMCs (HTRF). The class given is cell-based. The conditions noted are these: PBMC; for EC50: huPBMCs, LPS 50 ng/mL, 22 hours, IL-6 HTRF. As to the method:
Fresh Normal PB MNC (Catalog # PB001, AllCells, Alameda, Calif.) were shipped overnight at 4° C. and resuspended in Roswell Park Memorial Institute (RPMI) 1640 Medium, with GlutaMAX Supplement (Catalog #61870127, ThermoFisher Scientific, Waltham, Mass.) supplemented with 1% Penicillin-Streptomycin (Catalog #15140163, ThermoFisher Scientific, Waltham, Mass.) and 1% fetal bovine serum (FBS) (Catalog #16140089, ThermoFisher Scientific, Waltham, Mass.) assay media.
Compound Screening: Fresh normal human peripheral blood mononuclear cells (huPBMCs) were resuspended in 1% FBS-RPMI assay media with 1% Penicillin-Streptomycin 1% to a cell concentration of 1×10e6 cells/mL. […] 50 ng/mL of Lipopolysaccharides from Escherichia coli 0111:B4 (Catalog # L5293-2ML, Sigma-Aldrich, St. Louis, Mo.) was added after 2 hours and cells were incubated for another 22 hours at 37° C.-5% CO2. After 22 hour incubation, a mixture of anti-IL6 XL665 and anti-IL-6 Cryptate diluted in reconstitution buffer (Catalog #62IL6PEC, Cisbio Inc., Bedford, Mass.) was added to each well. Following incubation for 3 hours at room temperature, Homogeneous Time-Resolved Fluorescence (HTRF) was measured using the Envision (Perkin Elmer, Shelton, Conn.) at 665 nm and […]. The ratio of fluorescence at 665 nm to 620 nm was used as a readout for IL-6 quantification. All samples were processed in duplicate. Readings were normalized to DMSO treated cells and normalized activities were utilized for EC50 calculations. EC50 was determined using software generated by Dotmatics Limited (Windhill Bishops Stortford Herts, UK) using the Levenberg-Marquardt 4 parameter fitting procedure with finite different gradients.

The target of data set [4] is recombinant GSK3β kinase (Homo sapiens (Human), UniProt P49841). The experiment in a line: GSK3β kinase assay (Ser/Thr 09 peptide Z-lyte, FRET). Type of data set: biochemical. The conditions noted are these: 46 μM ATP, one hour at room temperature, read-out: EC50 (μM) (IC50 per method). An excerpt: Representative compounds were screened using the assay procedure for GSK3β kinase activity as described below.
Sequence of recombinant GSK3β kinase (P49841 whole entry): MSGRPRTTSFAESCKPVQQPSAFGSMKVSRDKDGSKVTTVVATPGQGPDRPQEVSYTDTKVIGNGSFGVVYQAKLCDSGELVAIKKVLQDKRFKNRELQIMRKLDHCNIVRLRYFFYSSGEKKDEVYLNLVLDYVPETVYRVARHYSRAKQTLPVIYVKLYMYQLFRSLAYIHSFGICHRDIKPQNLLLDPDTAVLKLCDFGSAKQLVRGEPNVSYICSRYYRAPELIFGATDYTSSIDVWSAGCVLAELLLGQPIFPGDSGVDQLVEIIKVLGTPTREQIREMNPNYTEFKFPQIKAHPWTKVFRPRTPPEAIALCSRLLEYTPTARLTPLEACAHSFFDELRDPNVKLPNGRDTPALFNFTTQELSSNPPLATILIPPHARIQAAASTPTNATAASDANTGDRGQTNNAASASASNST
The GSK3β kinase assay is run using the Ser/Thr 09 peptide Z-lyte assay kit according to manufacturer's instructions (Life Technologies—a Division of Thermo-Fisher). This is a non-radioactive assay using fluorescence resonance energy transfer (FRET) between coumarin and fluorescein to detect kinase activity which is represented as ratio of coumarin emission/fluorescein emission.
Briefly, recombinant GSK3β kinase, ATP and Ser/Thr peptide 09 are prepared in 1× Kinase buffer to final concentrations of 0.04 μg/mL, 46 μM, and 4 μM respectively. The mixture is allowed to incubate with the representative compounds for one hour at room temperature. All reactions were performed in duplicate. Unphosphorylated (“0% Control”) and phosphorylated (“100% control”) forms of […] serve as control reactions.
After incubation, diluted Development Buffer is added to the reaction and allowed to further incubate for one hour at room temperature. The plate is read at Ex 400 Em 455 to detect the coumarin signal and Ex 400 Em 520 to measure the signal (EnVision Multilabel Plate Reader, PerkinElmer).
The Emission ratio (Em) is calculated as a ratio of the coumarin (C) emission signal (at 445 nm)/Fluorescein (F) emission signal (at 520 nm). The percent phosphorylation is then calculated using the following formula: [1−((Em ratio×F100%)−C100%)/((C0%−C100%)+(Em ratio×(F100%−F0%)))].
Dose-response curves are generated and inhibitory concentration (IC50) values are calculated using non-linear regression curve fit in the Dotmatics' Studies Software (Bishops Stortford, UK).

The conditions of data set [5]: from NCc1cncc(-c2ccc3[nH]nc(C(=O)Nc4cncc(-c5cccc(CCC(=O)O)c5)c4)c3c2)c1; amide bond; 20-membered ring; HATU/DIEA/DMAP; DMF; 20.0 mM; 37.0 °C.

In data set [1], `CN1Cc2cncc(c2)-c2ccc3[nH]nc(c3c2)-c2nc3c(cccc3[nH]2)-c2cccc(c2)C1` [Compound 22, (Z)-6-Methyl-2^1H,3^1H-6-aza-2(5,3),3(2,4)-diindazola-1(3,5)-pyridina-4(1,3)-benzenacycloheptaphane] returned an EC50 of 14 nM. In addition, in data set [2], the “Conc (nM) of 50% TGF-β3 activity” value is reported as 50 nM, the “Max. Activity as % TGF-β3 activity” value is 440% and the “Conc (nM) of Max. activity” value turned out to be 600 nM. In data set [3], this molecule came in with a concentration giving a half-maximal response (EC50) of 161 nM. Further, the IC50 in data set [4] amounted to 0.011 µM.

`O=C1COc2cccc(c2)-c2cncc3[nH]c(nc23)-c2n[nH]c3ccc(cc23)-c2cncc(c2)N1` [Compound 38, (Z)-2^3H,3^1H-8-Oxa-5-aza-2(7,2)-imidazo[4,5-c]pyridina-3(3,5)-indazola-4(3,5)-pyridina-1(1,3)-benzenacyclooctaphan-6-one] returned an EC50 in data set [1] of 415 nM. Besides, in data set [2], the “Conc (nM) of 50% TGF-β3 activity” value is 100 nM, the “Max. Activity as % TGF-β3 activity” value is 185% and the “Conc (nM) of Max. activity” value was 100 nM. In data set [3], the concentration for a half-maximal effect (EC50) amounted to 612 nM. In data set [4], the 50% inhibitory concentration (IC50) stood at 0.001 µM.

With `CN1CCCCN(C)c2nccc3[nH]c(nc23)-c2n[nH]c3ccc(cc23)-c2cncc(c2)C1` [Compound 51, (Z)-5,10-Dimethyl-1H,2^1H-5,10-diaza-1(2,4)-imidazo[4,5-c]pyridina-2(3,5)-indazola-3(3,5)-pyridinacyclodecaphane], the EC50 in data set [1] is 515 nM. In data set [2], the “Conc (nM) of 50% TGF-β3 activity” value is reported as 5000 nM, the “Max. Activity as % TGF-β3 activity” value is 231% and the “Conc (nM) of Max. activity” value is given as 5000 nM. In data set [3], this molecule yielded an EC50 of 414 nM. The IC50 in data set [4] amounted to 0.002 µM.

`O=C1CCc2cccc(c2)-c2cncc(c2)NC(=O)c2n[nH]c3ccc(cc23)-c2cncc(c2)CN1` [Compound 97, 2^1H-4,10-diaza-2(5,3)-indazola-1,5(3,5)-dipyridina-6(1,3)-benzenacycloundecaphane-3,9-dione] returned a ring closure, isolated yield in data set [5] of 20.8%. The EC50 in data set [1] and in data set [3] was > 10000 nM throughout. Further, the inhibition at 10 µM in data set [1] (SW480, read-out: percent inhibition at 10 μM) stood at 25%; in data set [3] (read-out: percent inhibition at 10 μM), 25.7%. In data set [4], the IC50 turned out to be 0.01 µM.

As a reminder, the EC50 is the concentration at which the effect is half-maximal. A high value points to a less potent agent. The term IC50 denotes the concentration at which inhibition is half-maximal. The term inhibition denotes the change of the read-out against control, counted positive when it falls.

These data come from patent US10759799B2, “Indazole containing macrocycles and therapeutic uses thereof” (Samumed, LLC, priority 2018, dated 2020).
